Experimental data from US20100168421A1, “A NEW PEPTIDE DEFORMYLASE INHIBITOR COMPOUND AND MANUFACTURING PROCESS THEREOF” (priority 2007, published 2010).
In brackets after ≈: the same amount, converted by molar mass. Read-outs that look alike come from different tables or passages of the source.

How the values were obtained:
[1] = system: Vancomycin-resistant Enterococcus faecalis; assay: MIC microdilution, VR E. faecalis; assay type: cell-based; settings: microdilution, Mueller-Hinton Broth, 37° C., 24 hours, read-out: MIC Vancomycin-resistant Enterococcus faecalis
Experimental: (§1) Minimum inhibitory concentrations (MICs) were determined using the microdilution method in 96-well format plates. Each of the compounds of Examples was dissolved in dimethyl sulfoxide to a concentration of 2 mg/mL and stored at 4° C. until used. They were diluted in Mueller-Hinton Broth (MHB) and used for MIC determination. The range of concentrations tested was […] final concentration using a two-fold dilution system. Plates were incubated at 37° C. and MIC were recorded after 24 hours of incubation for bacteria.
(§2) Linezolid and vancomycin were used as standard antibiotics, respectively.

PDF enzyme [2] = molecular target: T1, PDF enzyme (Streptococcus pneumoniae serotype 4, UniProt Q9F2F0); assay: PDF/FDH coupled enzyme assay, Streptococcus Pneumoniae; assay type: biochemical; settings: substrate fMAS, absorption at 340 nm
T1 sequence (Q9F2F0 1-203): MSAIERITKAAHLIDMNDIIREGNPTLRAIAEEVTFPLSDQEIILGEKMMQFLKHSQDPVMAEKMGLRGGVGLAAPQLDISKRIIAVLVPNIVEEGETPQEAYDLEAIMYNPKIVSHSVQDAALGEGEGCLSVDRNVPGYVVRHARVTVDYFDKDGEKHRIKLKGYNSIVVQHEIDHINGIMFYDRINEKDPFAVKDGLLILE

[3] = system: Vancomycin-resistant Enterococcus faecium; assay: MIC microdilution, VR E. faecium; assay type: cell-based; settings: microdilution, Mueller-Hinton Broth, 37° C., 24 hours, read-out: MIC Vancomycin-resistant Enterococcus faecium
Experimental: as §1, §2

PDF enzyme [4] = molecular target: PDF enzyme (Escherichia coli, UniProt P0A6K3); assay: PDF/FDH coupled enzyme assay, E. coli; assay type: biochemical
Experimental: Activities of PDF enzyme for E. coli and S. aureus were determined using PDF/FDH coupled assay. In this coupled assay, the formate released by PDF from its substrate formyl-Methionine-Alanine-Serine (fMAS) is oxidized by coupling enzyme formate dehydrogenase (FDH), reducing one molecule of NAD^+ to NADH, which is measured absorption at 340 nm.

Streptococcus pyogenes = assay: MIC microdilution, S. pyogenes; assay type: cell-based; settings: microdilution, Mueller-Hinton Broth, 37° C., 24 hours, read-out: MIC Streptococcus pyogenes
Experimental: as §1, §2

PDF enzyme [5] = molecular target: PDF enzyme (Streptococcus pyogenes serotype M1, UniProt P68771); assay: PDF/FDH coupled enzyme assay, Streptococcus pyogenes; assay type: biochemical
[6] = system: Streptococcus Pneumoniae Pen S; assay: MIC microdilution, S. Pneumoniae Pen S; assay type: cell-based; settings: microdilution, Mueller-Hinton Broth, 37° C., 24 hours, read-out: MIC Streptococcus Pneumoniae Pen S
Experimental: as §1, §2

[7] = system: Streptococcus Pneumoniae Pen NS; assay: MIC microdilution, S. Pneumoniae Pen NS; assay type: cell-based; settings: microdilution, Mueller-Hinton Broth, 37° C., 24 hours, read-out: MIC Streptococcus Pneumoniae Pen NS
Experimental: as §1, §2

[8] = PDF/FDH coupled assay, substrate fMAS, absorption at 340 nm, read-out: IC50 Escherichia coli
[9] = PDF/FDH coupled assay, substrate fMAS, absorption at 340 nm, read-out: IC50 Streptococcus pyogenes

Sequence of PDF enzyme (Streptococcus pyogenes serotype M1, UniProt P68771) (P68771 whole entry): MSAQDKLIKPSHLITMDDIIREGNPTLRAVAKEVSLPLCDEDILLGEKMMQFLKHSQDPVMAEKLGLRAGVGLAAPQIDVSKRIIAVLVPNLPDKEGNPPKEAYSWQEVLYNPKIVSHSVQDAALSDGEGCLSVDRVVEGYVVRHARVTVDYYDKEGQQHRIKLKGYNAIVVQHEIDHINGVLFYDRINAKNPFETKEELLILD
Sequence of PDF enzyme (Escherichia coli, UniProt P0A6K3) (P0A6K3 whole entry): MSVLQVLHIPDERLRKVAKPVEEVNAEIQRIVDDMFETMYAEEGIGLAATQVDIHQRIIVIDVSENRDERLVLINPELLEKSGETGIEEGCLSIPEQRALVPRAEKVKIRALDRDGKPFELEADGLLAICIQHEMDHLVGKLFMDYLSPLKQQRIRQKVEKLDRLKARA

Compound	MIC [1] [µg/mL]	IC50 (PDF enzyme [2]) [nM]	MIC [3] [µg/mL]	IC50 (PDF enzyme [4]; [8]) [nM]	MIC (Streptococcus pyogenes) [µg/mL]	IC50 (PDF enzyme [5]; [9]) [nM]	MIC [6] [µg/mL]	MIC [7] [µg/mL]	IC50 (PDF enzyme [4]) [nM]	IC50 (PDF enzyme [5]) [nM]
CC(C)(C)[C@H](NC(=O)[C@H](CC1CCCC1)CN(O)C=O)C(=O)N1CCC(Nc2ccc(O)cc2)CC1 [Example 20, (R)-2-Cyclopentylmethyl-3-(formyl-hydroxy-amino)-N-{(S)-1-[4-(4-hydroxy-phenylamino)-piperidine-1-carbonyl]-2,2-dimethyl-formyl}-propionamide]	25 (≈ 49.7 µM)	63	25 (≈ 49.7 µM)	102	1.6 (≈ 3.18 µM)	61	0.8 (≈ 1.59 µM)	3.1 (≈ 6.17 µM)		
CC(C)(C)[C@H](NC(=O)[C@H](CC1CCCC1)CN(O)C=O)C(=O)N1CCC(NCc2ccc(O)cc2)CC1 [Example 6, (R)-2-Cyclopentylmethyl-3-(formyl-hydroxy-amino)-N-{(S)-1-[4-(4-hydroxy-benzylamino)-piperidine-1-carbonyl]-2,2-dimethyl-formyl}-propionamide]	> 50	42	50 (≈ 96.8 µM)	102	0.8 (≈ 1.55 µM)	84	0.8 (≈ 1.55 µM)	3.1 (≈ 6 µM)		
Cc1ccc(CNC2CCN(C(=O)[C@@H](NC(=O)[C@H](CC3CCCC3)CN(O)C=O)C(C)(C)C)CC2)cc1 [Example 2, (R)-2-Cyclopentylmethyl-N-{(S)-2,2-dimethyl-1-[4-(4-methyl-benzylamino)-piperidine-1-carbonyl]-propyl}-3-(formyl-hydroxy-amino)-propionamide]	3.1 (≈ 6.02 µM)	77	0.4 (≈ 0.777 µM)	132	0.2 (≈ 0.389 µM)	86	0.1 (≈ 0.194 µM)	0.4 (≈ 0.777 µM)		
CC(C)(C)[C@H](NC(=O)[C@H](CC1CCCC1)CN(O)C=O)C(=O)N1CCC(NCc2ccc(F)cc2F)CC1 [Example 10, (R)-2-Cyclopentylmethyl-N-{(S)-1-[4-(2,4-difluoro-benzylamino)-piperidine-1-carbonyl]-2,2-dimethyl-propyl}-3-(formyl-hydroxy-amino)-propionamide]		55							122	83
CC(C)(C)[C@H](NC(=O)[C@H](CC1CCCC1)CN(O)C=O)C(=O)N1CCC(NCc2ccco2)CC1 [Example 27, (R)-2-Cyclopentylmethyl-3-(formyl-hydroxy-amino)-N-((S)-1-{4-[(furan-2-ylmethyl)-amino]-piperidine-1-carbonyl}-2,2-dimethyl-propyl)-propionamide]		42							117	63
Cc1ccc(CNC2CCN(C(=O)[C@@H](NC(=O)[C@@H](CC(=O)NO)CC3CCCC3)C(C)(C)C)CC2)cc1 [Example 1, (R)-2-Cyclopentylmethyl-N^1-{(S)-2,2-dimethyl-1-[4-(4-methyl-benzylamino)-piperidine-1-carbonyl]-propyl}-N^4-hydroxy-succinamide]		65							150	70
CC(C)(C)[C@H](NC(=O)[C@H](CC1CCCC1)CN(O)C=O)C(=O)N1CCC(NCc2ccc(O)c(O)c2)CC1 [Example 13, (R)-2-Cyclopentylmethyl-N-{(S)-1-[4-(3,4-dihydroxy-benzylamino)-piperidine-1-carbonyl]-2,2-dimethyl-propyl}-3-(formyl-hydroxy-amino)-propionamide]		46							133	88
COc1coc(CNC2CCN(C(=O)[C@@H](NC(=O)[C@H](CC3CCCC3)CN(O)C=O)C(C)(C)C)CC2)cc1=O [Example 29, (R)-2-Cyclopentylmethyl-3-(formyl-hydroxy-amino)-N-((S)-1-{4-[(5-methoxy-4-oxo-4H-pyran-2-ylmethyl)-amino]-piperidine-1-carbonyl}-2,2-dimethyl-propyl)-propionamide]		43							155	54
